Laboratory results published in patent US20050118109A1, “Method for treating lung diseases associated with ventilation-perfusion mismatches” (priority 2003, published 2005).

Tests used:
Type I binding sites = molecular target: T1, Type I binding sites (Homo sapiens, UniProt P41586); conditions: cited from earlier work
T1 sequence (P41586 21-468): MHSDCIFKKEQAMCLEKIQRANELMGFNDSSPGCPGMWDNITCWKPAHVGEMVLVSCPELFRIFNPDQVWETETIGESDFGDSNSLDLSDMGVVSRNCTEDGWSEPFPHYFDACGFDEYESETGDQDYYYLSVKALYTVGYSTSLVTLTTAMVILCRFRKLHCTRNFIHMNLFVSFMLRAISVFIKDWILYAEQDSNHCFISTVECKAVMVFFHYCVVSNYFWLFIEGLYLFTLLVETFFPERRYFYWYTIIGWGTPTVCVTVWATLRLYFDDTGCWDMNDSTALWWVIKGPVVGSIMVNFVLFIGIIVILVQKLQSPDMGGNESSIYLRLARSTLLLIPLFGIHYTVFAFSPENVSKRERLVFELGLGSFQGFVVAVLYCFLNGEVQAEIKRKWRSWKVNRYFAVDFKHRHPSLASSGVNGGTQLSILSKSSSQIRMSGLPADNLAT

[1] = tested on: arthritis in an experimental model; conditions: treatment with VIP; cited from earlier work
[2] = tested on: patient with chronic bronchitis with V/Q-mismatch; assay: Inhalation of VIP by patient No. 4: chronic bronchitis with V/Q-mismatch, no bronchial obstruction; format: in vivo, human
[3] = tested on: pulmonary vascular system; conditions: in vivo; cited from earlier work
[4] = patient No. 4, after 1 and 2 days of inhalation

In the case of “His-Ser-Asp-Ala-Val-Phe-Thr-Asp-Asn-Tyr-Thr-Arg-Leu-Arg-Lys-Gln-Met-Ala-Val-Lys-Lys-Tyr-Leu-Asn-Ser-Ile-Leu-Asn [VIP]”, the “affinity for type I binding sites” value (Type I binding sites) is given as “much lower affinity”, the “incidence and severity of arthritis” value [1] is given as “reduce significantly” and the “joint swelling and destruction of cartilage and bone” value [1] is given as “completely abrogating”. For the same substance, the “pulmonary gas exchange in lung function analysis” value [2, 4] was “completely normal pulmonary gas exchange”, the “severe decrease of paO2 caused by V/Q-mismatch” value [2, 4] was “significantly ameliorated” and the V/Q-mismatch ([2]; patient No. 4, after inhalation of VIP) was “totally removed”. For the same substance, the “resistance in the pulmonary vascular system” value [3] was “decrease the resistance”.
